Ends that are not written are not given here.
Assays:
Assay in all cases: MIC, broth microdilution
[1] = system: Bacillus subtilis (KCTC 3068); type: cell-based; conditions: B. subtilis, 2 × 10^6 CFU/mL
[2] = system: S. aureus (KCTC 1621); type: cell-based, Staphylococcus aureus; conditions: 2 × 10^6 CFU/mL
[3] = system: Enterococcus faecalis (KCTC 2011); type: cell-based; conditions: E. faecalis, 2 × 10^6 CFU/mL
[4] = system: Staphylococcus epidermidis (KCTC 1917); type: cell-based; conditions: S. epidermidis, 2 × 10^6 CFU/mL
[5] = system: E. coli (KCTC 1682); type: cell-based, Escherichia coli; conditions: 2 × 10^6 CFU/mL
[6] = system: Salmonella typhimurium (KCTC 1926); type: cell-based; conditions: S. typhimurium, 2 × 10^6 CFU/mL
[7] = system: Pseudomonas aeruginosa (KCTC 1637); type: cell-based; conditions: P. aeruginosa, 2 × 10^6 CFU/mL
[8] = system: Proteus vulgaris (KCTC 2433); type: cell-based; conditions: P. vulgaris, 2 × 10^6 CFU/mL
[9] = in the presence of 16 μM R9 (+R9)

Row | Compound | antimicrobial activity (MIC) ([1]; peptide alone (−R9)) | antimicrobial activity (MIC) ([2]; peptide alone (−R9)) | antimicrobial activity (MIC) ([3]; peptide alone (−R9)) [µM] | antimicrobial activity (MIC) ([4]; peptide alone (−R9)) [µM] | antimicrobial activity (MIC) ([5]; peptide alone (−R9)) [µM] | antimicrobial activity (MIC) ([6]; peptide alone (−R9)) | antimicrobial activity (MIC) ([7]; peptide alone (−R9)) | antimicrobial activity (MIC) ([8]; peptide alone (−R9)) | antimicrobial activity (MIC) [1, 9] | antimicrobial activity (MIC) [2, 9] | antimicrobial activity (MIC) [3, 9] [µM] | antimicrobial activity (MIC) [4, 9] [µM] | antimicrobial activity (MIC) [5, 9] [µM] | antimicrobial activity (MIC) [6, 9] | antimicrobial activity (MIC) [7, 9] | antimicrobial activity (MIC) [8, 9]
1 | N=C(N)NCCC[C@H](NC(=O)[C@H](CCCNC(=N)N)NC(=O)[C@H](CCCNC(=N)N)NC(=O)[C@H](CCCNC(=N)N)NC(=O)[C@H](CCCNC(=N)N)NC(=O)[C@H](CCCNC(=N)N)NC(=O)[C@H](CCCNC(=N)N)NC(=O)[C@H](CCCNC(=N)N)NC(=O)[C@@H](N)CCCNC(=N)N)C(N)=O [R9] | > 128 µM |  |  |  |  |  |  |  |  |  |  |  |  |  |  | 
2 | RRRRRRRRRGGGGIGKWLHSAKKFGKAFVGEIMNS-NH2 [R9-magainin] | 2 to 4 µM | 8 µM | 4 | 4 to 8 | 2 to 4 | 1 to 2 µM | 4 µM | 4 to 8 µM |  |  |  |  |  |  |  | 
3 | KWKKLLKKLLKLLKK-NH2 [M15] | 8–16/8–16 μM | 8/8 μM | 16 | 16 to 32 | 16 to 32 | 32/32 μM | 32/32 μM | 32/32 μM | 8–16/8–16 μM | 8/8 μM | 8 | 16 | 16 | 32/32 μM | 32/32 μM | 32/32 μM

From PMC6761801 (ACS Omega, 2019)
